From patent publication US11214594B2, “Antimicrobial peptide having synergistic antibacterial effect with antibiotics on multidrug resistant bacteria, and use thereof” (priority 2016, dated 2022)
In brackets after ≈: the same amount, converted by molar mass. Where a SMILES comes first, the peptide text is derived from it. [ ]: non-standard residue; d: D form.

Tests used:
[1] = tested on: E. coli; test: microbe, parasite or virus in culture; assay type: cell-based, Escherichia coli; conditions: 16 h
How it was run: (§1)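 Each strain is brought to 2×10^6 CFU in nutrient-sufficient Mueller-Hinton medium and dispensed into wells. Peptide solutions, stepwise diluted 2:1 in the same medium, are then added. The minimal concentration preventing growth gives the MIC.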

[2] = tested on: MDREC 1229; test: microbe, parasite or virus in culture; assay type: cell-based, Escherichia coli
How it was run: as §1

[3] = tested on: MDREC 1238; assay type: cell-based, Escherichia coli
How it was run: as §1

[4] = tested on: P. aeruginosa; test: microbe, parasite or virus in culture; assay type: cell-based, Pseudomonas aeruginosa
How it was run: as §1

[5] = tested on: MDRPA 2002; assay type: cell-based, Pseudomonas aeruginosa
How it was run: as §1

[6] = tested on: MDRPA 2003; assay type: cell-based, Pseudomonas aeruginosa
How it was run: as §1

[7] = tested on: MDRST 8007; test: Minimal inhibitory concentration (MIC), single agent; assay type: cell-based, Salmonella typhimurium; conditions: agent alone
How it was run: as §1

[8] = tested on: B. subtilis; test: microbe, parasite or virus in culture; assay type: cell-based, Bacillus subtilis
How it was run: as §1

[9] = tested on: S. epidermidis; test: microbe, parasite or virus in culture; assay type: cell-based, Staphylococcus epidermidis
How it was run: as §1

[10] = tested on: S. aureus; test: microbe, parasite or virus in culture; assay type: cell-based, Staphylococcus aureus
How it was run: as §1

[11] = tested on: MRSA 3114; assay type: cell-based, Staphylococcus aureus; conditions: 3114
How it was run: as §1

[12] = tested on: MRSA 3126; assay type: cell-based, Staphylococcus aureus; conditions: 3126
How it was run: as §1

[13] = tested on: E. coli; test: MIC of antibiotic during combined treatment with antimicrobial peptide; assay type: cell-based, Escherichia coli; conditions: for Antibiotic MIC, Erythromycin / Antibiotic MIC, Linezolid / Antibiotic MIC, Vancomycin: E. coli
How it was run: (§2)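 Checkerboard-type MIC of peptide–antibiotic mixtures in MH medium: the antibiotic was serially diluted in MH medium and added to wells, then the reversed arrangement was also tested.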

[14] = tested on: MDREC 1229; test: as above; assay type: cell-based, Escherichia coli
How it was run: (§3)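 Strains in MH medium at 2×10^6 CFU/ml were mixed with peptide diluted stepwise (2:1) from its MIC, then antibiotic dilutions in MH medium were added to give the antibiotic MIC. The reversed set-up, peptide titrated against fixed antibiotic, gave the peptide MIC.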

[15] = tested on: A. baumannii; test: as above; assay type: cell-based, Acinetobacter baumannii; conditions: A. baumannii
How it was run: as §2

[16] = tested on: MDRAB 12035; test: as above; assay type: cell-based, Acinetobacter baumannii
How it was run: as §3

[17] = peptide treatment concentration 1 μg/ml
[18] = peptide treatment concentration 2 μg/ml
[19] = peptide treatment concentration 4 μg/ml
[20] = peptide treatment concentration 6 μg/ml
[21] = peptide treatment concentration 8 μg/ml
[22] = peptide treatment concentration 16 μg/ml
[23] = peptide treatment concentration 32 μg/ml
[24] = peptide treatment concentration 64 μg/ml
[25] = combined with peptide at 1 μg/ml
[26] = combined with peptide at 2 μg/ml
[27] = combined with peptide at 4 μg/ml
[28] = combined with peptide at 6 μg/ml
[29] = combined with peptide at 8 μg/ml
[30] = combined with peptide at 16 μg/ml
[31] = combined with peptide at 32 μg/ml
[32] = combined with peptide at 64 μg/ml

CC[C@H](C)[C@H](NC(=O)[C@H](CCCCN)NC(=O)[C@H](Cc1c[nH]c2ccccc12)NC(=O)[C@@H](N)CCCNC(=N)N)C(=O)N[C@@H](Cc1ccccc1)C(=O)N[C@@H](CCCCN)C(=O)N[C@@H](CCCCN)C(=O)N[C@H](C(=O)N[C@H](CCCCN)C(=O)N[C@@H](CCCCN)C(=O)N[C@@H](CC(C)C)C(=O)N[C@@H](CC(C)C)C(=O)N[C@@H](Cc1c[nH]cn1)C(=O)N[C@@H](CO)C(=O)N[C@@H](Cc1ccccc1)C(=O)N[C@@H](CCCCN)C(=O)N[C@@H](CCCCN)C(=O)N[C@@H](Cc1ccccc1)C(N)=O)[C@@H](C)CC [PapMA-15, RWK IFK KIk KLL HSF KKF-NH2] (H-RWKIFKKI[dK]KLLHSFKKF-NH2; N-terminus assumed)
Minimal inhibitory concentration MIC [1]: 32 µg/mL (≈ 13.5 µM)
Minimal inhibitory concentration MIC [2]: 32 µg/mL (≈ 13.5 µM)
Peptide MIC, peptide alone [2]: 32 µg/mL
Minimal inhibitory concentration MIC [3]: 32 µg/mL (≈ 13.5 µM)
Minimal inhibitory concentration MIC [4]: 32 µg/mL (≈ 13.5 µM)
Minimal inhibitory concentration MIC [5]: 32 µg/mL (≈ 13.5 µM)
Minimal inhibitory concentration MIC [6]: 32 µg/mL (≈ 13.5 µM)
Minimal inhibitory concentration MIC [7]: 64 µg/mL (≈ 26.9 µM)
Minimal inhibitory concentration MIC [8]: >128 µg/mL
Minimal inhibitory concentration MIC [9]: >128 µg/mL
Minimal inhibitory concentration MIC [10]: >128 µg/mL
Minimal inhibitory concentration MIC [11]: >128 µg/mL
Minimal inhibitory concentration MIC [12]: >128 µg/mL
Synergistic effect of antibacterial activity with existing antibiotics compared with PapMA-1 ([13]; E. coli and MDREC1229): level similar to that of the PapMA-1 peptide
Antibiotic MIC, Erythromycin ([13]; erythromycin combined with peptide at 1 μg/ml): 64 µg/mL
Antibiotic MIC, Erythromycin ([13]; erythromycin combined with peptide at 2 μg/ml): 32 µg/mL
Antibiotic MIC, Erythromycin ([13]; erythromycin combined with peptide at 4 μg/ml): 16 µg/mL
Antibiotic MIC, Erythromycin ([13]; erythromycin combined with peptide at 6 μg/ml): 2 µg/mL
Antibiotic MIC, Erythromycin ([13]; erythromycin combined with peptide at 8 μg/ml): 1 µg/mL
Antibiotic MIC, Erythromycin ([13]; erythromycin combined with peptide at 16 μg/ml): 0.25 µg/mL
Antibiotic MIC, Erythromycin ([13]; erythromycin combined with peptide at 32 μg/ml): 0 µg/mL
Antibiotic MIC, Erythromycin ([13]; erythromycin combined with peptide at 64 μg/ml): 0 µg/mL
Antibiotic MIC, Linezolid ([13]; linezolid combined with peptide at 1 μg/ml): >128 µg/mL
Antibiotic MIC, Linezolid ([13]; linezolid combined with peptide at 2 μg/ml): 128 µg/mL
Antibiotic MIC, Linezolid ([13]; linezolid combined with peptide at 4 μg/ml): 32 µg/mL
Antibiotic MIC, Linezolid ([13]; linezolid combined with peptide at 6 μg/ml): 16 µg/mL
Antibiotic MIC, Linezolid ([13]; linezolid combined with peptide at 8 μg/ml): 16 µg/mL
Antibiotic MIC, Linezolid ([13]; linezolid combined with peptide at 16 μg/ml): 8 µg/mL
Antibiotic MIC, Linezolid ([13]; linezolid combined with peptide at 32 μg/ml): 0 µg/mL
Antibiotic MIC, Linezolid ([13]; linezolid combined with peptide at 64 μg/ml): 0 µg/mL
Antibiotic MIC, Vancomycin ([13]; vancomycin combined with peptide at 1 μg/ml): >128 µg/mL
Antibiotic MIC, Vancomycin ([13]; vancomycin combined with peptide at 2 μg/ml): >128 µg/mL
Antibiotic MIC, Vancomycin ([13]; vancomycin combined with peptide at 4 μg/ml): >128 µg/mL
Antibiotic MIC, Vancomycin ([13]; vancomycin combined with peptide at 6 μg/ml): 64 µg/mL
Antibiotic MIC, Vancomycin ([13]; vancomycin combined with peptide at 8 μg/ml): 32 µg/mL
Antibiotic MIC, Vancomycin ([13]; vancomycin combined with peptide at 16 μg/ml): 16 µg/mL
Antibiotic MIC, Vancomycin ([13]; vancomycin combined with peptide at 32 μg/ml): 0 µg/mL
Antibiotic MIC, Vancomycin ([13]; vancomycin combined with peptide at 64 μg/ml): 0 µg/mL
Antibiotic MIC, Erythromycin [14, 17]: >128 µg/mL
Antibiotic MIC, Linezolid [14, 17]: >128 µg/mL
Antibiotic MIC, Vancomycin [14, 17]: >128 µg/mL
Antibiotic MIC, Erythromycin [14, 18]: 32 µg/mL
Antibiotic MIC, Linezolid [14, 18]: 128 µg/mL
Antibiotic MIC, Vancomycin [14, 18]: >128 µg/mL
Antibiotic MIC, Erythromycin [14, 19]: 16 µg/mL
Antibiotic MIC, Linezolid [14, 19]: 64 µg/mL
Antibiotic MIC, Vancomycin [14, 19]: >128 µg/mL
Antibiotic MIC, Erythromycin [14, 20]: 8 µg/mL
Antibiotic MIC, Linezolid [14, 20]: 64 µg/mL
Antibiotic MIC, Vancomycin [14, 20]: 64 µg/mL
Antibiotic MIC, Erythromycin [14, 21]: 4 µg/mL
Antibiotic MIC, Linezolid [14, 21]: 32 µg/mL
Antibiotic MIC, Vancomycin [14, 21]: 32 µg/mL
Antibiotic MIC, Erythromycin [14, 22]: 1 µg/mL
Antibiotic MIC, Linezolid [14, 22]: 16 µg/mL
Antibiotic MIC, Vancomycin [14, 22]: 16 µg/mL
Antibiotic MIC, Erythromycin [14, 23]: 0 µg/mL
Antibiotic MIC, Linezolid [14, 23]: 0 µg/mL
Antibiotic MIC, Vancomycin [14, 23]: 0 µg/mL
Antibiotic MIC, Erythromycin [14, 24]: 0 µg/mL
Antibiotic MIC, Linezolid [14, 24]: 0 µg/mL
Antibiotic MIC, Vancomycin [14, 24]: 0 µg/mL
Antibiotic MIC, Erythromycin [15, 25]: 32 µg/mL
Antibiotic MIC, Linezolid [15, 25]: >128 µg/mL
Antibiotic MIC, Vancomycin [15, 25]: >128 µg/mL
Antibiotic MIC, Erythromycin [15, 26]: 32 µg/mL
Antibiotic MIC, Linezolid [15, 26]: 128 µg/mL
Antibiotic MIC, Vancomycin [15, 26]: 128 µg/mL
Antibiotic MIC, Erythromycin [15, 27]: 16 µg/mL
Antibiotic MIC, Linezolid [15, 27]: 64 µg/mL
Antibiotic MIC, Vancomycin [15, 27]: 32 µg/mL
Antibiotic MIC, Erythromycin [15, 28]: 2 µg/mL
Antibiotic MIC, Linezolid [15, 28]: 32 µg/mL
Antibiotic MIC, Vancomycin [15, 28]: 16 µg/mL
Antibiotic MIC, Erythromycin [15, 29]: 0.5 µg/mL
Antibiotic MIC, Linezolid [15, 29]: 16 µg/mL
Antibiotic MIC, Vancomycin [15, 29]: 16 µg/mL
Antibiotic MIC, Erythromycin [15, 30]: 0.25 µg/mL
Antibiotic MIC, Linezolid [15, 30]: 2 µg/mL
Antibiotic MIC, Vancomycin [15, 30]: 8 µg/mL
Antibiotic MIC, Erythromycin [15, 31]: 0 µg/mL
Antibiotic MIC, Linezolid [15, 31]: 0 µg/mL
Antibiotic MIC, Vancomycin [15, 31]: 0 µg/mL
Antibiotic MIC, Erythromycin [15, 32]: 0 µg/mL
Antibiotic MIC, Linezolid [15, 32]: 0 µg/mL
Antibiotic MIC, Vancomycin [15, 32]: 0 µg/mL
Erythromycin MIC during combined treatment with peptide [16, 17]: 32 µg/mL
Linezolid MIC during combined treatment with peptide [16, 17]: >128 µg/mL
Vancomycin MIC during combined treatment with peptide [16, 17]: >128 µg/mL
Erythromycin MIC during combined treatment with peptide [16, 18]: 32 µg/mL
Linezolid MIC during combined treatment with peptide [16, 18]: >128 µg/mL
Vancomycin MIC during combined treatment with peptide [16, 18]: >128 µg/mL
Erythromycin MIC during combined treatment with peptide [16, 19]: 16 µg/mL
Linezolid MIC during combined treatment with peptide [16, 19]: 64 µg/mL
Vancomycin MIC during combined treatment with peptide [16, 19]: 128 µg/mL
Erythromycin MIC during combined treatment with peptide [16, 20]: 2 µg/mL
Linezolid MIC during combined treatment with peptide [16, 20]: 64 µg/mL
Vancomycin MIC during combined treatment with peptide [16, 20]: 32 µg/mL
Erythromycin MIC during combined treatment with peptide [16, 21]: 1 µg/mL
Linezolid MIC during combined treatment with peptide [16, 21]: 32 µg/mL
Vancomycin MIC during combined treatment with peptide [16, 21]: 32 µg/mL
Erythromycin MIC during combined treatment with peptide [16, 22]: 0.25 µg/mL
Linezolid MIC during combined treatment with peptide [16, 22]: 4 µg/mL
Vancomycin MIC during combined treatment with peptide [16, 22]: 16 µg/mL
Erythromycin MIC during combined treatment with peptide [16, 23]: 0 µg/mL
Linezolid MIC during combined treatment with peptide [16, 23]: 0 µg/mL
Vancomycin MIC during combined treatment with peptide [16, 23]: 0 µg/mL
Erythromycin MIC during combined treatment with peptide [16, 24]: 0 µg/mL
Linezolid MIC during combined treatment with peptide [16, 24]: 0 µg/mL
Vancomycin MIC during combined treatment with peptide [16, 24]: 0 µg/mL
